Laboratory results: patent publication US20010053795A1, “Paradoxical pharmacology” (priority 2000, published 2001)

System: spontaneously hypertensive rat (SHR)
Assay: Blood pressure (tail-cuff) in spontaneously hypertensive rats after L-NAME infusion
Format: in vivo
Settings: L-NAME 10 ml/kg/10 min for 10 min
Procedure: To determine a possible mechanism underlying the decrease in blood pressure after infusion of NE/E, L-NAME (N(omega)-nitro-L-arginine methyl ester), which is a nitric oxide synthase inhibitor, was infused at a rate of 10 ml/kg/10 min for a total 10 min. After infusion of the L-NAME, blood pressure was measured via the tail-cuff method. FIG. 3 illustrates the effect of the blood pressure after infusion of L-NAME.
Nitric oxide is tonically released by the activity of the constitutive endothelial and neuronal NO synthases (NOS). Nitric oxide is vasodilatory, and tonically produced NO maintains low blood pressure. During exercise, there is an increase in norepinephrine and an increase in nitric oxide production. […] The increase in production of nitric oxide is due to an activation of nitric oxide synthase, which in turn increase the levels of nitric oxide.

COC(=O)[C@@H](N)CCCNC(=N)N[N+](=O)[O-] [L-NAME, N(omega)-nitro-L-arginine methyl ester]
effect on blood pressure after L-NAME infusion (SHR treated with NE/E for 28 days): increase in blood pressure | effect on blood pressure after L-NAME infusion (SHR treated with vehicle for 28 days (controls)): further decrease in the blood pressure
